US20240189449A1, “LIPID NANOPARTICLES AND POLYNUCLEOTIDES ENCODING ORNITHINE TRANSCARBAMYLASE FOR THE TREATMENT OF ORNITHINE TRANSCARBAMYLASE DEFICIENCY” (ModernaTX, Inc., priority 2021, published 2024)

How the values were obtained:
mice [1] = assay: Luciferase expression, total whole body flux, mice; format: in vivo
Experimental: (§1) To further assess potency of expression and metabolic stability of lipids of the disclosure, expression of luciferase was measured following administration to rodents of a nanoparticle of the disclosure comprising an mRNA containing luciferase.
Lipid nanoparticles including DSPC as a phospholipid, cholesterol as a structural lipid, Compound I as a PEG lipid, an ionizable amino lipid of Formula (II), and an mRNA encoding luciferase were intravenously administered to CD-1 mice and Sprague Dawley rats. […]

mice [2] = assay: Residual lipid levels in the liver at 24 h, mice (luciferase mRNA LNPs); format: in vivo
CD-1 mice [3] = assay: hEPO expression in serum after IV lipid nanoparticles with hEPO mRNA, CD-1 mice; format: in vivo; settings: LNP with DSPC, cholesterol, Compound I; for Mean 6 hr hEPO Concentration: serum 6 hours after injection
Experimental: To assess potency of expression and metabolic stability of lipids of the disclosure, hepatocyte protein expression (hEPO) was measured following administration to mice of a nanoparticle of the disclosure.
(§2) Lipid nanoparticles including DSPC as a phospholipid, cholesterol as a structural lipid, Compound I as a PEG lipid, an ionizable amino lipid of Formula (II), and an mRNA encoding hEPO were intravenously administered to CD-1 mice. The concentration of hEPO in serum was tested at 6 hours after injection.

CD-1 mice [4] = assay: Parent lipid remaining in liver at 24 h, CD-1 mice (hEPO mRNA LNPs); format: in vivo; settings: for Approx. Percent Total Dose of Parent Lipid Remaining at 24 h: calculation assumes a 25 g mouse with a 1.5 g liver
CD-1 mice [5] = assay: NPI-Luciferase expression, ex vivo liver bioluminescence, CD-1 mice; format: in vivo; settings: mouse, IV
Experimental: as §1
as §2, with “luciferase” for “hEPO”, “mice and Sprague Dawley rats.” for “mice.”, “level” for “concentration”, “expression” for “hEPO in serum”, “tested via bioluminescence in the liver ex vivo” for “tested”

Sprague Dawley rats [6] = assay: Parent lipid remaining in liver tissue at 24 h, rats; format: in vivo; settings: rat
Sprague Dawley rats [7] = assay: NPI-Luciferase expression, ex vivo liver bioluminescence, Sprague Dawley rats; format: in vivo; settings: rat, IV
Experimental: as §1
as §2, with “luciferase” for “hEPO”, “mice and Sprague Dawley rats.” for “mice.”, “level” for “concentration”, “expression” for “hEPO in serum”, “tested via bioluminescence in the liver ex vivo” for “tested”

cynomolgus monkeys = assay: Luciferase level in livers ex vivo (ELISA), cynomolgus monkeys; settings: IV
Experimental: To the assess potency of expression and metabolic stability of lipids of the disclosure in different species, the expression of an mRNA was measured following administration to non-human primates of a nanoparticle of the disclosure containing the mRNA.
as §2, with “luciferase” for “hEPO”, “cynomolgus monkeys.” for “CD-1 mice.”, “level” for “concentration”, “livers ex vivo” for “serum”, “measured via ELISA” for “tested”

Sprague Dawley rats [8] = assay: hEPO expression in serum after IV lipid nanoparticles with hEPO mRNA, Sprague Dawley rats; format: in vivo; settings: serum 6 hours after injection
Experimental: To further assess potency of expression and metabolic stability of lipids of the disclosure, hepatocyte protein expression (hEPO) was measured following administration to rats of a nanoparticle of the disclosure.
as §2, with “Sprague Dawley rats.” for “CD-1 mice.”

Row | Parent Lipid Remaining (nmol/g liver tissue) at 24 h (CD-1 mice [4]) | Approx. Percent Total Dose of Parent Lipid Remaining at 24 h (CD-1 mice [4]) | Approx. Percent Total Dose of Parent Lipid Remaining at 24 h (Sprague Dawley rats [6]) | SMILES | Total Whole Body Flux @ 6 h (mice [1]) | % Lipid Remaining @ 24 h (mice [2]) | hEPO AUC (CD-1 mice [3]) | Mean 6 hr hEPO Concentration (CD-1 mice [3]) | Mean 6 h ex vivo Liver NPI-Luciferase Total Flux (CD-1 mice [5]) | Mean 6 h ex vivo Liver NPI-Luciferase Total Flux (Sprague Dawley rats [7]) | Mean 6 h NPI-Luciferase Concentration (cynomolgus monkeys) | Mean 6 hr hEPO Concentration (Sprague Dawley rats [8])
1 | 0.3 ± 0.2 nmol/g liver tissue | 0.2% |  | CCCCCCCCC(CCCCCCCC)OC(=O)CCCCCCCN(CCO)CCCCCCCC(=O)OCCC(CCCC)CCCCCC (stereo not drawn) [Compound 7] | 6.09E+10 p/s | <1% | 2.13E+07 | 1355957 mIU/mL |  |  |  | 
2 |  |  |  | CCCCCCCCC(CCCCCCCC)OC(=O)CCCCCCCN(CCO)CCCCCCCC(=O)OCC(CCC)CCCCCCC (stereo not drawn) [Compound 8] | 3.82E+10 p/s | <1% |  |  |  |  |  | 
3 |  |  |  | CCCCCCCCC(CCCCCCCC)OC(=O)CCCCCCCN(CCCCCCCC(=O)OCC(CCC)CCCCCCC)CCCNc1c(NC)c(=O)c1=O (stereo not drawn) [Compound 9] | 1.82E+10 p/s | 68 ± 10% |  |  |  |  |  | 
4 |  |  |  | CCCCCCCCC(CCCCCCCC)OC(=O)CCCCCCCN(CCCCCCCC(=O)OCC(CCCC)CCCCCCC)CCCNc1c(NC)c(=O)c1=O (stereo not drawn) [Compound 10] | 4.6E+09 p/s | 67 ± 7% |  |  |  |  |  | 
5 |  |  |  | CCCCCCCCC(CCCCCCCC)OC(=O)CCCCCCCN(CCCCCCCC(=O)OCC(CC)CCCCCCC)CCCNc1c(NC)c(=O)c1=O (stereo not drawn) [Compound 11] | 1.04E+10 p/s | 23 ± 6% |  |  |  |  |  | 
6 |  |  |  | CCCCCCCCC(CCCCCCCC)OC(=O)CCCCCCCN(CCO)CCCCCCCC(=O)OCCC(CCCCCC)C(C)C (stereo not drawn) [Compound 12] | 2.39E+10 p/s | <1% |  |  |  |  |  | 
7 |  |  |  | CCCCCCCCC(CCCCCCCC)OC(=O)CCCCCCCN(CCO)CCCCCCCC(=O)OCCC(CCC)CCCCCC (stereo not drawn) [Compound 13] | 3.77E+10 p/s | <1% |  |  |  |  |  | 
8 | 56 ± 6 nmol/g liver tissue | 58% | 58% | CCCCCCCCC(CCCCCCCC)COC(=O)CCCCCN(CCCCCCCC(=O)OC(CC)CCCCCCCC)CCCNc1c(NC)c(=O)c1=O (stereo not drawn) [Compound 14] |  |  | 4.53E+07 | 2952339 mIU/mL | 465200000 photons/second | 1567000000 photons/second |  | 
9 | 40 ± 7 nmol/g liver tissue | 41% | 41% | CCCCCCCCC(CCCCCCCC)OC(=O)CCCCCCCN(CCCCCCCC(=O)OCCC(CCC)CCCCCC)CCCNc1c(NC)c(=O)c1=O (stereo not drawn) [Compound 18] |  |  | 3.17E+07 | 2158772 mIU/mL | 372800000 photons/second | 1473333333 photons/second |  | 
10 | 3 ± 1 nmol/g liver tissue | 2% | 2% | CCCCCCCCC(CCCCCCCC)OC(=O)CCCCCCCN(CCO)CCCCCCCC(=O)OCCC(CCCCC)CCCCC [Compound 24] |  |  | 1.93E+07 | 1160499 mIU/mL | 240400000 photons/second | 2020000000 photons/second |  | 
11 | 3 ± 0.6 nmol/g liver tissue | 3% |  | CCCCC(CCCC)CCOC(=O)CCCCCCCN(CCCCCCCC(=O)OCCC(CCCC)CCCC)CCCNc1c(NC)c(=O)c1=O [Compound 55] |  |  | 1.99E+07 | 1332073 mIU/mL |  |  |  | 161760 mIU/mL
12 | 5.1 ± 0.8 nmol/g liver tissue | 6 ± 0.3% |  | CCCCCC(CCCCC)OC(=O)CCCCCCCN(CCCCCCCC(=O)OCCC(CCCC)CCCC)CCCNc1c(NC)c(=O)c1=O [Compound 61] |  |  | 1.44E+07 | 1020791 mIU/mL |  |  |  | 362569 mIU/mL
13 | 8.9 ± 2.8 nmol/g liver tissue | 9 ± 3%^ |  | CCCCCCCC(CCCCCCC)OC(=O)CCCCCCCN(CCCCCCCC(=O)OCCC(CCC)CCC)CCCNc1c(NC)c(=O)c1=O [Compound 63] |  |  | 9.66E+06 | 692334 mIU/mL |  |  |  | 
14 | 4.9 ± 0.9 nmol/g liver tissue | 6 ± 0.8% |  | CCCCCCC(CCCCCC)OC(=O)CCCCCCCN(CCCCCCCC(=O)OCCC(CCC)CCC)CCCNc1c(NC)c(=O)c1=O [Compound 64] |  |  | 2.43E+07 | 1760015 mIU/mL |  |  |  | 161146 mIU/mL
15 | 0.9 ± 0.3 nmol/g liver tissue | 0.9 ± 0.06% |  | CCCCCC(CCCCC)OC(=O)CCCCCCCN(CCCCCCCC(=O)OCCC(CCC)CCC)CCCNc1c(NC)c(=O)c1=O [Compound 65] |  |  | 1.02E+07 | 734054 mIU/mL |  |  |  | 
16 | 0.1 ± 0.03 nmol/g liver tissue | <1% |  | CCCCC(CCCC)OC(=O)CCCCCCCN(CCCCCCCC(=O)OCCC(CCC)CCC)CCCNc1c(NC)c(=O)c1=O [Compound 66] |  |  | 2.10E+05 | 17801 mIU/mL |  |  |  | 

Row | SMILES | Parent Lipid Remaining (nmol/g liver tissue) at 24 h (CD-1 mice [4]) | Approx. Percent Total Dose of Parent Lipid Remaining at 24 h (CD-1 mice [4]) | Approx. Percent Total Dose of Parent Lipid Remaining at 24 h (Sprague Dawley rats [6]) | Total Whole Body Flux @ 6 h (mice [1]) | % Lipid Remaining @ 24 h (mice [2]) | hEPO AUC (CD-1 mice [3]) | Mean 6 hr hEPO Concentration (CD-1 mice [3]) | Mean 6 h ex vivo Liver NPI-Luciferase Total Flux (CD-1 mice [5]) | Mean 6 h ex vivo Liver NPI-Luciferase Total Flux (Sprague Dawley rats [7]) | Mean 6 h NPI-Luciferase Concentration (cynomolgus monkeys) | Mean 6 hr hEPO Concentration (Sprague Dawley rats [8])
17 | CCCCCC(CCCCC)CCOC(=O)CCCCCCCN(CCCCCCCC(=O)OCCC(CCCCC)CCCCC)CCCNc1c(NC)c(=O)c1=O [Compound 30, Bis(3-pentyloctyl) 8,8′-((3-((2-(methylamino)-3,4-dioxocyclobut-1-en-1-yl)amino)propyl)azanediyl)dioctanoate] | 25 ± 4 nmol/g liver tissue | 26% | 25% |  |  | 2.40E+07 | 1592050 mIU/mL | 299800000 photons/second | 963633333.3 photons/second | 782 ng/g | 688780 mIU/mL
18 | CCCCCC(CCCCC)CCOC(=O)CCCCCCCN(CCCCCCCC(=O)OCCC(CCCC)CCCC)CCCNc1c(NC)c(=O)c1=O [Compound 54, 3-Butylheptyl 8-((3-((2-(methylamino)-3,4-dioxocyclobut-1-en-1-yl)amino)propyl)(8-oxo-8-((3-pentyloctyl)oxy)octyl)amino)octanoate] | 12 ± 1 nmol/g liver tissue | 12% |  |  |  | 1.97E+07 | 647775 mIU/mL |  |  | 693 ng/g | 476742 mIU/mL
